# Read-outs that look alike come from different tables or passages of the source.
# Columns and labels:
# [1] = test system: Staphylococcus aureus ATCC 29213; assay: microbe, parasite or virus in culture; format: cell-based; settings: Staphylococcus aureus, ATCC29213
# [2] = test system: Staphylococcus aureus MRSA MC-1; assay: microbe, parasite or virus in culture; format: cell-based; settings: Staphylococcus aureus, MRSA
# [3] = test system: Enterococcus faecium VRE 1; assay: microbe, parasite or virus in culture; format: cell-based
# Streptococcus pyogenes = assay: microbe, parasite or virus in culture; format: cell-based
# Bacillus cereus = assay: microbe, parasite or virus in culture; format: cell-based
# M. smegmatis = assay: MIC assay; format: cell-based; settings: Mycolicibacterium smegmatis; Table 6; read-out: MIC M. smegmatis
# Bacillus anthracis = assay: microbe, parasite or virus in culture; format: cell-based
# Bacillus megaterium = assay: microbe, parasite or virus in culture; format: cell-based; settings: Priestia megaterium
# Bacillus subtilis = assay: microbe, parasite or virus in culture; format: cell-based
# [4] = test system: Corynebacterium pseudodiphthericum; assay: microbe, parasite or virus in culture; format: cell-based; settings: Corynebacterium pseudodiphtheriticum
# [5] = test system: Corynebacterium diphtheriae Tox−; assay: microbe, parasite or virus in culture; format: cell-based
# Corynebacterium xerosis = assay: microbe, parasite or virus in culture; format: cell-based
# [6] = test system: Enterococcus faecium VRE 14; assay: microbe, parasite or virus in culture; format: cell-based
# [7] = test system: Enterococcus faecalis ATCC 29212; assay: microbe, parasite or virus in culture; format: cell-based; settings: Enterococcus faecalis, ATCC29212
# [8] = test system: Staphylococcus aureus ATCC 25923; assay: microbe, parasite or virus in culture; format: cell-based; settings: ATCC25923
# [9] = test system: Staphylococcus aureus MRSA MC-4; assay: microbe, parasite or virus in culture; format: cell-based
# Streptococcus mitis = assay: microbe, parasite or virus in culture; format: cell-based
# Streptococcus agalactiae = assay: microbe, parasite or virus in culture; format: cell-based
# [10] = test system: Streptococcus pneumoniae ATCC 49619; assay: microbe, parasite or virus in culture; format: cell-based; settings: ATCC49619
# Listeria monocytogenes = assay: microbe, parasite or virus in culture; format: cell-based
# Mycobacterium bovis BCG = assay: microbe, parasite or virus in culture; format: cell-based; settings: Mycobacterium tuberculosis variant bovis BCG
# Escherichia coli = assay: microbe, parasite or virus in culture; format: cell-based
# Pseudomonas aeruginosa = assay: microbe, parasite or virus in culture; format: cell-based
# Mycobacterium chelonae = assay: MIC assay; format: cell-based; settings: Table 6; read-out: MIC M. chelonae
# Mycobacterium fortuitum = assay: MIC assay; format: cell-based; settings: Mycolicibacterium fortuitum; Table 6; read-out: MIC M. fortuitum
# [11] = test system: several strains of bacteria; assay: Kirby-Bauer disc diffusion assay; format: cell-based; settings: bioassay-directed fractionation
# Experimental: The crude extract was then fractionated by flash column chromatography, using a 42 mm ID column, silica gel 60 as the stationary phase, and CH2Cl2 as the eluting solvent. Typically, 100-150, 10 mL fractions were collected and assayed for microbial growth inhibition. […] The column fractions, including the active component, were also analyzed by thin-layer chromatography (TLC) using Baker-flex® silica gel IB2-F plates (with fluorescent indicator) and CH2Cl2 as the eluting solvent (see FIG. 1).
# [12] = test system: vancomycin-resistant enterococci; assay: organism not typed; format: cell-based
# [13] = test system: methicillin-resistant Staphylococcus aureus; assay: microbe, parasite or virus in culture; format: cell-based
# [14] = test system: Gram-negative bacteria tested; assay: organism not typed; format: cell-based; settings: read-out: MICs
# [15] = test system: Gram-positive bacteria tested; assay: organism not typed; format: cell-based
# C. elegans = assay: motility assay; format: in vivo; design: key to Movement score, 1/1600 / Movement score, 1/800 / Movement score, 1/400 / Movement score, 1/200 / Movement score, 1/100: normal (−); slow (+); very slow (++); not motile/paralyzed (+++); settings: Ive 1 ng/μL in all wells
# C. elegans L1 larvae = assay: developmental assay; format: in vivo; design: key to Developmental score, 1/1600 / Developmental score, 1/800 / Developmental score, 1/400 / Developmental score, 1/200 / Developmental score, 1/100: dead (+++); distressed (++); slightly delayed (+); the same as M9-only untreated wells (−); settings: after four days, Ive 1 ng/μL in each well
structure (smiles),measurement,setting,value
"COc1cc(O)cc(/C=C/c2ccccc2)c1 [CL-3, 3-hydroxy-5-methoxystilbene]",MIC,[1],32 µg/mL
same,MIC,"[1]; Table 6, read-out: MIC S. aureus ATCC 29213",16 µg/mL
same,MIC,[2],32 µg/mL
same,MIC,[2]; read-out: MIC S. aureus MC-1,16 µg/mL
same,MIC,"[3]; Enterococcus faecium, VRE",16 µg/mL
same,"MIC E. faecium VRE 1, G+",[3]; Table 3,32 µg/mL
same,MIC,Streptococcus pyogenes; Streptococcus pyogenes,16 µg/mL
same,"MIC S. pyogenes, G+",Streptococcus pyogenes; Table 3,16 µg/mL
same,MIC,Bacillus cereus; Bacillus cereus,16 µg/mL
same,"MIC B. cereus, G+ (anthrax surrogate)",Bacillus cereus; Table 3,16 µg/mL
same,MIC,M. smegmatis,64 µg/mL
same,MIC,Bacillus anthracis,4 µg/mL
same,MIC,Bacillus megaterium,64 µg/mL
same,MIC,Bacillus subtilis,16 µg/mL
same,MIC,[4],16 µg/mL
same,MIC,[5],32 µg/mL
same,MIC,Corynebacterium xerosis,16 µg/mL
same,MIC,[6],16 µg/mL
same,MIC,[7],16 µg/mL
same,MIC,[8],32 µg/mL
same,MIC,[9],32 µg/mL
same,MIC,Streptococcus mitis,64 µg/mL
same,MIC,Streptococcus agalactiae,32 µg/mL
same,MIC,[10],8 µg/mL
same,MIC,Listeria monocytogenes,32 µg/mL
same,MIC,"Mycobacterium bovis BCG; M bovis BCG, Example 3",25.6 µg/mL
same,MIC,"Mycobacterium bovis BCG; Table 2, Mycobacterium bovis BCG",26 µg/mL
same,MIC,Escherichia coli,> 128 µg/mL
same,MIC,Pseudomonas aeruginosa,> 128 µg/mL
same,MIC,Mycobacterium chelonae,16 µg/mL
same,MIC,Mycobacterium fortuitum,16 µg/mL
same,growth inhibition,[11],inhibited the growth
same,MIC,[12],32 µg/mL
same,MIC,[13],32 µg/mL
same,MIC,[14],> 128 µg/mL
same,growth inhibition of Gram-positive bacteria,[15],inhibit the growth of all Gram-positive bacteria tested
same,"Movement score, 1/100",C. elegans; dilution 1/100 of stock (10.24 μg/μL; SK-03-92 1.024 μg/μL),+++
same,"Movement score, 1/200",C. elegans; dilution 1/200 of stock (10.24 μg/μL; SK-03-92 1.024 μg/μL),+++
same,"Movement score, 1/400",C. elegans; dilution 1/400 of stock (10.24 μg/μL; SK-03-92 1.024 μg/μL),+
same,"Movement score, 1/800",C. elegans; dilution 1/800 of stock (10.24 μg/μL; SK-03-92 1.024 μg/μL),−
same,"Movement score, 1/1600","C. elegans; dilution 1/1600 of stock (10.24 μg/μL; SK-03-92 1.024 μg/μL), overnight 20° C.",−
same,"Developmental score, 1/100",C. elegans L1 larvae; dilution 1/100,+++
same,"Developmental score, 1/200",C. elegans L1 larvae; dilution 1/200,+
same,"Developmental score, 1/400",C. elegans L1 larvae; dilution 1/400,−
same,"Developmental score, 1/800",C. elegans L1 larvae; dilution 1/800,−
same,"Developmental score, 1/1600",C. elegans L1 larvae; dilution 1/1600,−
